Assay results published in patent publication US7807677B2, “HIV protease inhibitors” (Medivir AB, priority 2005, dated 2010).
Read-outs that look alike come from different tables or passages of the source.

What was measured:
[1] = cited from earlier work
[2] = test system: cytochrome P450 3A enzyme; conditions: inhibitor of the cytochrome P450 3A enzyme; cited from earlier work
HIV-1 protease [3] = biological target: T1, HIV-1 protease (Human immunodeficiency virus type 1 group M subtype B, UniProt P04585); test: biochemical
HIV-1IIIB (wild type) = test: Antiviral activity in cell culture (XTT assay in MT-4 cells); assay type: cell-based; conditions: Human immunodeficiency virus 1, MT4, read-out: ED50 (μM)
Method: Compounds of the invention are assayed for HIV activity, for example using multiple determinations with XTT in MT-4 cells (Weislow et al, J Nat Cancer Inst 1989, vol 81 no 8, 577 et seq), preferably including determinations in the presence of 40-50% human serum to indicate the contribution of protein binding. In short the XTT assay uses human T cell line MT4 cells grown in RPMI 1640 medium supplemented with 10% fetal calf serum (or 40-50% human serum as appropriate), penicillin and streptomycin seeded into 96 well microplates (2·10^4 cells/well) infected with 10-20 TCID50 per well of HIV-1IIIB (wild type) or mutant virus, such as those bearing RT Ile 100, Cys 181 or Asn 103 mutations. Serially diluted test compounds are added to respective wells and the culture incubated at 37° C. in a CO2 enriched atmosphere and the viability of cells is determined at day five or six with XTT vital dye. Results are typically presented as ED50 μM.
Exp. Med. Biol., 1998, 436, 99-103. […] Agents Chemother., 1997, 41, 2383-2388.

HIV-1 protease [4] = biological target: T1, HIV-1 protease; conditions: Enzyme Inhibition

Row | Molecule | Ki (HIV-1 protease [3]) [nM] | EC50 (HIV-1IIIB (wild type)) [µM] | other results
1 | COC(=O)N[C@H](C(=O)N[C@@H](Cc1ccccc1)[C@@H](O)CN(Cc1ccc(-c2ccccn2)cc1)NC(=O)[C@@H](NC(=O)OC)C(C)(C)C)C(C)(C)C [Atazanavir, atazanavir] | – | – | increase in exposure (saquinavir) ([1]; due to combination with atazanavir, multiple-dose pharmacology study): greater than 3 fold; Ki [2]: 2400 nM
2 | CC(C)[C@H](NC(=O)OCc1ccccc1)C(=O)NN(Cc1ccccc1)C[C@@](O)(Cc1ccccc1)C(=O)N[C@H]1c2ccccc2C[C@H]1O [Compound 11, {(1S)-1-[N′-Benzyl-N′-((2S)-2-hydroxy-2-((1S,2R)-2-hydroxy-indan-1-ylcarbamoyl)-3-phenyl-propyl)-hydrazinocarbonyl]-2-methyl-propyl}-carbamic acid benzyl ester] | 11 to 50 | – | –
3 | CC(C)(C)[C@H](NC(=O)OCc1ccccc1)C(=O)NN(Cc1ccccc1)C[C@@](O)(Cc1ccccc1)C(=O)N[C@H]1c2ccccc2C[C@H]1O [Compound 13, {(1S)-1-[N′-Benzyl-N′-((2S)-2-hydroxy-2-((1S,2R)-2-hydroxy-indan-1-ylcarbamoyl)-3-phenyl-propyl)-hydrazinocarbonyl]-2,2-dimethyl-propyl}-carbamic acid benzyl ester] | 11 to 50 | – | –
4 | COC(=O)N[C@H](C(=O)NN(Cc1ccccc1)C[C@@](O)(Cc1ccccc1)C(=O)N[C@H]1c2ccccc2C[C@H]1O)C(C)C [Compound 14, {(1S)-1-[N′-Benzyl-N′-((2S)-2-hydroxy-2-((1S,2R)-2-hydroxy-indan-1-ylcarbamoyl)-3-phenyl-propyl)-hydrazinocarbonyl]-2-methyl-propyl}-carbamic acid methyl ester] | < 10 | 2 to 10 | –
5 | COC(=O)N[C@H](C(=O)NN(Cc1ccccc1)C[C@@](O)(Cc1ccccc1)C(=O)N[C@H]1c2ccccc2C[C@H]1O)C(C)(C)C [Compound 15, {(1S)-1-[N′-Benzyl-N′-((2S)-2-hydroxy-2-((1S,2R)-2-hydroxy-indan-1-ylcarbamoyl)-3-phenyl-propyl)-hydrazinocarbonyl]-2,2-dimethyl-propyl}-carbamic acid methyl ester] | < 10 | 2 to 10 | –
6 | CC(C)(C)[C@H](NS(C)(=O)=O)C(=O)NN(Cc1ccccc1)C[C@@](O)(Cc1ccccc1)C(=O)N[C@H]1c2ccccc2C[C@H]1O [Compound 17, (2S)-2-Benzyl-3-[N-benzyl-N′-((2S)-2-methanesulfonylamino-3,3-dimethyl-butyryl)-hydrazino]-2-hydroxy-N-((1S,2R)-2-hydroxy-indan-1-yl)-propionamide] | 50 to 100 | – | –
7 | CC(C)(C)[C@H](NC(=O)NCc1ccccc1)C(=O)NN(Cc1ccccc1)C[C@@](O)(Cc1ccccc1)C(=O)N[C@H]1c2ccccc2C[C@H]1O [Compound 18, (2S)-2-Benzyl-3-{N-Benzyl-N′-[(2S)-2-(3-benzyl-ureido)-3,3-dimethyl-butyryl]-hydrazino}-2-hydroxy-N-((1S,2R)-2-hydroxy-indan-1-yl)-propionamide] | 11 to 50 | – | –
8 | COC(=O)N[C@H](C(=O)NN(Cc1ccc(Br)cc1)C[C@@](O)(Cc1ccccc1)C(=O)N[C@H]1c2ccccc2C[C@H]1O)C(C)(C)C [Compound 19, {(1S)-1-[N′-(4-Bromo-benzyl)-N′-((2S)-2-hydroxy-2-((1S,2R)-2-hydroxy-indan-1-ylcarbamoyl)-3-phenyl-propyl)-hydrazinocarbonyl]-2,2-dimethyl-propyl}-carbamic acid methyl ester] | – | < 2 | –
9 | Cc1c(O)cccc1C(=O)N[C@@H](CSc1ccccc1)[C@H](O)CN1C[C@H]2CCCC[C@H]2C[C@H]1C(=O)NC(C)(C)C [nelfinavir] | – | – | increase the exposure of saquinavir ([1]; saquinavir dosed at 1200 mg thrice-daily (TID), at steady-state): 392%
10 | {(1S)-1-[N′-(4-Bromo-benzyl)-N′-((2S)-2-hydroxy-2-((1S,2R)-2-hydroxy-indan-1-ylcarbamoyl)-3-phenyl-propyl)-hydrazinocarbonyl]-2-methyl-propyl}-carbamic acid benzyl ester [Compound 20] | – | – | Ki (HIV-1 protease [4]): 11 to 50 nM
